Measurements reported in patent EP2092824A1, “Heterocyclyl pyrimidines” (Bayer CropScience AG, priority 2008, dated 2009).
Each block holds one compound with its values, some of them ahead of it.

Key:
[1] = logP determination by HPLC on reversed-phase column (EEC-Directive 79/831 Annex V.A8); format: physicochemical; conditions: c18 hplc, C 18 reversed phase, 43°C, LC-MS at pH 2,7 (0,1 % aqueous formic acid / acetonitrile)
Method: Die Bestimmung der in den Herstellungsbeispielen angegebenen logP-Werte erfolgte gemäß EEC-Directive 79/831 Annex V.A8 durch HPLC (High Performance Liquid Chromatography) an einer Phasenumkehrsäule (C 18). Temperatur: 43°C.
Die Bestimmung erfolgte mit der LC-MS bei pH 2,7 mit 0,1 % wässriger Ameisensäure und Acetonitril (enthält 0,1 % Ameisensäure) als Eluenten; linearer Gradient von 10 % Acetonitril bis 95 % Acetonitril.
Die Eichung erfolgte mit unverzweigten Alkan-2-onen (mit 3 bis 16 Kohlenstoffatomen), deren logP-Werte bekannt sind (Bestimmung der logP-Werte anhand der Retentionszeiten durch lineare Interpolation zwischen zwei aufeinanderfolgenden Alkanonen).

[2] = tested on: Phaedon cochleariae; assay: Phaedon test (PHAECO spray treatment); format: in vivo; conditions: foliar, Aufwandmenge 500 g/ha, sprayed Chinese cabbage leaf discs, larvae, 100 % = all beetle larvae killed, read-out: Wirkung
Text: Phaedon-Test (PHAECO Spritzbehandlung)
(§1) Zur Herstellung einer zweckmäßigen Wirkstoffzubereitung vermischt man 1 Gewichtsteil Wirkstoff mit den angegebenen Mengen Lösungsmittel und Emulgator und verdünnt das Konzentrat mit emulgatorhaltigem Wasser auf die gewünschte Konzentration.
Chinakohlblattscheiben (Brassica pekinensis) werden mit einer Wirkstoffzubereitung der gewünschten Konzentration gespritzt und nach dem Abtrocknen mit Larven des Meerrettichblattkäfers (Phaedon cochleariae) besetzt.
Nach der gewünschten Zeit wird die Wirkung in % bestimmt. Dabei bedeutet 100 %, dass alle Käferlarven abgetötet wurden; 0 % bedeutet, dass keine Käferlarven abgetötet wurden.

[3] = tested on: Puccinia recondita; assay: Puccinia test (wheat) / protective; format: in vivo; conditions: Konzentration an Wirkstoff 500ppm, wheat plants, evaluation 7-9 days after inoculation, 100 % = no infestation
Text: Puccinia-Test (Weizen) / protektiv
(§2) Zur Herstellung einer zweckmäßigen Wirkstoffzubereitung vermischt man 1 Gewichtsteil Wirkstoff mit den angegebenen Mengen Lösungsmittel und Emulgator und verdünnt das Konzentrat mit Wasser auf die gewünschte Konzentration.
Zur Prüfung auf protektive Wirksamkeit bespritzt man junge Weizenpflanzen mit der Wirkstoffzubereitung in der angegebenen Aufwandmenge. 1 Tag nach der Behandlung werden die Pflanzen mit einer Sporensuspension von Puccinia recondita inokuliert und stehen dann 48h bei 100% rel. Feuchte und 22°C. Anschließend stehen die Pflanzen bei 80% rel. Luftfeuchtigkeit und einer Temperatur von 20 °C.
7-9 Tage nach der Inokulation erfolgt die Auswertung. Dabei bedeutet 0 % ein Wirkungsgrad, der demjenigen der Kontrolle entspricht, während ein Wirkungsgrad von 100 % bedeutet, dass kein Befall beobachtet wird.

[4] = tested on: Myzus persicae; assay: Myzus test (MYZUPE spray treatment); format: in vivo; conditions: foliar, Aufwandmenge 500 g/ha, sprayed Chinese cabbage leaf discs (Brassica pekinensis) infested with all stages, 100 % = all aphids killed, read-out: Wirkung
Text: Myzus-Test (MYZUPE Spritzbehandlung)
as §1
Chinakohlblattscheiben (Brassica pekinensis), die von allen Stadien der Grünen Pfirsichblattlaus (Myzus persicae) befallen sind, werden mit einer Wirkstoffzubereitung der gewünschten Konzentration gespritzt.
Nach der gewünschten Zeit wird die Wirkung in % bestimmt. Dabei bedeutet 100 %, dass alle Blattläuse abgetötet wurden; 0 % bedeutet, dass keine Blattläuse abgetötet wurden.

[5] = tested on: Sphaerotheca fuliginea; assay: Sphaerotheca test (cucumber) / protective; format: in vivo; conditions: Konzentration an Wirkstoff 500ppm, cucumber plants, evaluation 7 days after inoculation, 100 % = no infestation
Text: Sphaerotheca-Test (Gurke) / protektiv
as §2
Zur Prüfung auf protektive Wirksamkeit bespritzt man junge Gurkenpflanzen mit der Wirkstoffzubereitung in der angegebenen Aufwandmenge. 1 Tag nach der Behandlung werden die Pflanzen mit einer Sporensuspension von Sphaerotheca fuliginea inokuliert. Anschließend werden die Pflanzen in einem Gewächshaus bei 70 % relativer Luftfeuchtigkeit und einer Temperatur von 23 °C aufgestellt.
7 Tage nach der Inokulation erfolgt die Auswertung. Dabei bedeutet 0 % ein Wirkungsgrad, der demjenigen der Kontrolle entspricht, während ein Wirkungsgrad von 100 % bedeutet, daß kein Befall beobachtet wird.

[6] = tested on: Meloidogyne incognita; assay: Meloidogyne test (MELGIN spray treatment); format: in vivo; conditions: Aufwandmenge 4 ppm; nematicidal effect by gall formation on lettuce roots; 100 % = no galls
Text: Meloidogyne-Test (MELGIN Spritzbehandlung)
Zur Herstellung einer zweckmäßigen Wirkstoffzubereitung vermischt man 1 Gewichtsteil Wirkstoff mit der angegebenen Menge Lösungsmittel und verdünnt das Konzentrat mit Wasser auf die gewünschte Konzentration.
Gefäße werden mit Sand, Wirkstofflösung, Meloidogyne incognita-Ei-Larven-Suspension und Salatsamen gefüllt. Die Salatsamen keimen und die Pflänzchen entwickeln sich. An den Wurzeln entwickeln sich die Gallen.
Nach der gewünschten Zeit wird die nematizide Wirkung an Hand der Gallenbildung in % bestimmt. Dabei bedeutet 100 %, dass keine Gallen gefunden wurden; 0 % bedeutet, dass die Zahl der Gallen an den behandelten Pflanzen der der unbehandelten Kontrolle entspricht.

- chromatographic logP [1]: 4.52
SMILES: CSc1nc(Cl)c(-c2ccccc2Cl)c(Cl)n1 [4,6-Dichlor-5-(2-chlorphenyl)-2-(methylthio)pyrimidin]

- chromatographic logP [1]: 2.55
SMILES: CC(C)Nc1nc([S+](C)[O-])nc(Cl)c1-c1ccccc1Cl (centres unmarked) [4-Chlor-5-(2-chlorphenyl)-6-(isopropylamino)-2-(methylsulfinyl)-pyrimidin]

- chromatographic logP [1]: 4.52
SMILES: CSc1nc(Cl)c(-c2ccccc2Cl)c(NC(C)C)n1 [4-Chlor-5-(2-chlorphenyl)-6-(isopropylamino)-2-(methylthio)-pyrimidin]

SMILES: CC(C)Nc1nc(-n2ccc(C(=O)NS(C)(=O)=O)n2)nc(Cl)c1-c1ccccc1Cl [I-2, 1-[4-Chlor-5-(2-chlorphenyl)-6-(isopropylamino)pyrimidin-2-yl]-N-(methylsulfonyl)-1H-pyrazol-3-carboxamid]
- mortality at 500 g/ha [2]: ≥ 80%
- Wirkungsgrad [3]: ≥ 70%
- mortality at 500 g/ha [4]: ≥ 80%
- Wirkungsgrad [5]: ≥ 70%

SMILES: Cc1cc(C(=O)NS(C)(=O)=O)nn1-c1nc(Cl)c(-c2ccccc2Cl)c(NC(C)C)n1 [I-3, 1-[4-Chlor-5-(2-chlorphenyl)-6-(isopropylamino)pyrimidin-2-yl]-5-methyl-N-(methylsulfonyl)-1H-pyrazol-3-carboxamid]
- mortality at 500 g/ha [2]: ≥ 80%
- Wirkungsgrad [3]: ≥ 70%
- Wirkung [6]: ≥ 80%
- mortality at 500 g/ha [4]: ≥ 80%
- Wirkungsgrad [5]: ≥ 70%

SMILES: Cc1cc(C(=O)NS(C)(=O)=O)nn1-c1nc(Cl)c(-c2ccccc2)c(NC(C)C)n1 [I-4]
- mortality at 500 g/ha [2]: ≥ 80%

SMILES: Cc1cc(C(=O)NS(C)(=O)=O)nn1-c1nc(Cl)c(-c2c(F)cc(F)cc2F)c(NC(C)C)n1 [I-6]
- mortality at 500 g/ha [2]: ≥ 80%
- mortality at 500 g/ha [4]: ≥ 80%

- chromatographic logP [1]: 2.96
SMILES: CC(C)Nc1nc(S(C)(=O)=O)nc(Cl)c1-c1ccccc1Cl [II-1, 4-Chlor-5-(2-chlorphenyl)-6-isopropylamino-2-methylsulfonyl-pyrimidin]

SMILES: CC(C)Nc1nc(-n2ccc(C(=O)O)n2)nc(Cl)c1-c1ccccc1Cl [X-1, 1-[4-Chlor-5-(2-chlorphenyl)-6-(isopropylamino)pyrimidin-2-yl]-1H-pyrazol-3-carbonsäure]
- mortality at 500 g/ha [2]: ≥ 80%
- mortality at 500 g/ha [4]: ≥ 80%

SMILES: Cc1cc(C(=O)O)nn1-c1nc(Cl)c(-c2ccccc2Cl)c(NC(C)C)n1 [X-2, 1-[4-Chlor-5-(2-chlorphenyl)-6-(isopropylamino)pyrimidin-2-yl]-5-methyl-1H-pyrazol-3-carbonsäure]
- mortality at 500 g/ha [2]: ≥ 80%
- mortality at 500 g/ha [4]: ≥ 80%

SMILES: Cc1cc(C(=O)O)nn1-c1nc(Cl)c(-c2ccccc2)c(NC(C)C)n1 [X-3]
- mortality at 500 g/ha [2]: ≥ 80%

SMILES: Cc1cc(C(=O)O)nn1-c1nc(Cl)c(-c2c(F)cc(F)cc2F)c(NC(C)C)n1 [X-5]
- mortality at 500 g/ha [2]: ≥ 80%
- mortality at 500 g/ha [4]: ≥ 80%
